These results are taken from ChEMBL document CHEMBL1201862, “PubChem BioAssay data set” (2004).

For one experiment, the system named is HEK293. Put plainly: viability loss in HEK293T cells – cell-based, ATP luminescence, cherry-pick samples, cytotoxicity control, dose response (AID 687005).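 Also: cells exposed to compound for 48 hours.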 As to conditions: Homo sapiens. In kind it is functional.
The nature of experiment [1]: HEK293 Cytotoxicity Assay Measured in Cell-Based System Using Plate Reader - 7071-01_Inhibitor_Dose_CherryPick_Activity_Set2. Format: functional.
Experiment [2] can be described thus: Inhibition of Plasmodium falciparum NF54 Measured in Cell-Based System Using Plate Reader - 2138-11_Inhibitor_Dose_CherryPick_Activity. Format: functional.
Experiment [3] in a line: mouse fibroblast viability loss – cell-based, cherry-pick samples, set 2, cytotoxicity control for T. cruzi growth inhibitor project, dose response (AID 651817). As to conditions: NIH3T3. Format: functional.
The nature of experiment [4]: L6 myocyte viability loss – cell-based, plate reader, cherry-pick, cytotoxicity control, dose response (AID 651896). In kind it is functional.
The nature of experiment [5]: intracellular Trypanosoma cruzi inhibitors in host cells – cell-based, plate reader, cherry-pick samples, set 3, dose response (AID 651818).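 Also: compounds incubated with infected cells for about four days.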 In kind it is functional.
Experiment [6] is described as follows: African trypanosome bloodstream form growth inhibition – STIB900 strain, plate reader, cherry pick, dose response (AID 651893). In kind it is functional, cell-based, Trypanosoma brucei rhodesiense. As to conditions: Trypanosoma brucei.
Experiment [7] can be described thus: Inhibition of T. cruzi Tulahuen strain amastigotes in L-6 muscle cells Measured in Cell-Based and Microorganism Combination System Using Plate Reader - 2138-03_Inhibitor_Dose_CherryPick_Activity. In kind it is functional. As to conditions: Rattus norvegicus, L6.
The nature of experiment [8]: anti-trypanosomal activity in BESM host cells – imaging, CA-I/72 strain, bovine embryo skeletal muscle, dry powder, dose response (AID 651885). In kind it is functional, cell-based.
Experiment [9] can be described thus: antileishmanial activity on axenic amastigotes – plate reader, cherry pick, dose response (AID 651891). In kind it is functional, cell-based. As to conditions: Leishmania donovani.
The nature of experiment [10]: general mammalian cell viability loss – activator set, cherry-pick, cytotoxicity control for miR-122 modulator project, dose response (AID 720690).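 Also: HEK293T human cells scored for general mammalian cytotoxicity.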 In kind it is functional, cell-based.
Experiment [11] in a line: viability loss in HepG2 hepatoma cells – cell-based, cherry-picks, set 5, cytotoxicity control, dose response (AID 1053118). Format: functional.
Experiment [12] is described as follows: blockers of FN fibrillogenesis by fibroblasts – AH1F cells, Alexa488-FN fluorescence, cherry-picks, dose response (AID 1035475). Format: functional, cell-based.
The nature of experiment [13]: activation of miR-122 Renilla sensor silencing – cell-based, Huh7 psiCHECK-miR122, Renilla luciferase, cherry-picked, dose response (AID 651956).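 Also: huh7 hepatoma cells stably carrying a psiCHECK-2 miR-122 sensor plasmid; renilla luciferase signal reporting endogenous miR-122 activity after 48 h compound exposure.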 Format: functional.
Experiment [14] is described as follows: viability loss in HEK293 kidney cells – cell-based, cherry-picks, set 5, cytotoxicity control, dose response (AID 1053117). Format: functional.
The nature of experiment [15]: inhibitors of EBV LMP1 NF-kappaB signaling – cell-based, luciferase reporter, luminescence, dry powder, set 2, dose response (AID 624376). Format: functional.
Experiment [16] is described as follows: T. cruzi growth inhibition in host cells, dose response, cell-based, plate reader, dry powder, set 2 (AID 652275). In kind it is functional.
Experiment [17] has as its target Potassium channel subfamily K member 3 (Homo sapiens, UniProt O14649). The experiment is described as follows: inhibition of human KCNK3 channel flux – CHO cells, FluxOR thallium flux, SAR follow-up (AID 652212). Format: functional.
For experiment [18], the target named is NAD-dependent protein deacylase sirtuin-5, mitochondrial (Homo sapiens, UniProt Q9NXA8). The experiment is described as follows: blockers of sirtuin-5 peptide desuccinylation – biochemical, fluorescence imaging, cherry-pick, set 6, dose response (AID 720597).
In a further experiment the target is Vasopressin V2 receptor (Homo sapiens, UniProt P30518). Put plainly: Late-stage results from the probe development effort to identify antagonists of arginine vasopressin receptor 1a (AVPR1a): fluorescence-based cell-based dose response AVPR2 inhibition counterscreen assay. Format: functional. For orientation: Counterscreens check selectivity or assay interference.

Another experiment deals with Vasopressin V1b receptor (Homo sapiens, UniProt P47901). Put plainly: Late-stage results from the probe development effort to identify antagonists of arginine vasopressin receptor 1a (AVPR1a): fluorescence-based cell-based dose response AVPR1b inhibition counterscreen assay. In kind it is functional.
A short description of experiment [19]: Late-stage results from the probe development effort to identify antagonists of arginine vasopressin receptor 1a (AVPR1a): fluorescence-based cell-based dose response OXTR inhibition counterscreen assay. Format: functional.
Experiment [20] is described as follows: Late-stage results from the probe development effort to identify antagonists of arginine vasopressin receptor 1a (AVPR1a): fluorescence-based cell-based dose response AVPR1a inhibition assay. In kind it is functional.
In experiment [21] the target is Disintegrin and metalloproteinase domain-containing protein 17 (Homo sapiens, UniProt P78536). Put plainly: exosite inhibitors of ADAM17, dose response, biochemical (AID 743260).
The nature of experiment [22]: inhibition of ADAM10 peptide cleavage – biochemical, FRET peptide substrate, recombinant human ADAM10, selectivity assay for ADAM17 exosite inhibitor project, dose response (AID 743259).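 Also: ADAM10 enzyme cleaving a FRET peptide substrate.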
In the next experiment the target is fMet-Leu-Phe receptor (Homo sapiens, UniProt P21462). The experiment is described as follows: formyl peptide receptor binders – dose response (AID 519). In kind it is functional.

Structures can show the parent of a compound that is named as a salt. Activity calls are given as the source filed them.

Chain of Potassium channel subfamily K member 3 (O14649 whole entry): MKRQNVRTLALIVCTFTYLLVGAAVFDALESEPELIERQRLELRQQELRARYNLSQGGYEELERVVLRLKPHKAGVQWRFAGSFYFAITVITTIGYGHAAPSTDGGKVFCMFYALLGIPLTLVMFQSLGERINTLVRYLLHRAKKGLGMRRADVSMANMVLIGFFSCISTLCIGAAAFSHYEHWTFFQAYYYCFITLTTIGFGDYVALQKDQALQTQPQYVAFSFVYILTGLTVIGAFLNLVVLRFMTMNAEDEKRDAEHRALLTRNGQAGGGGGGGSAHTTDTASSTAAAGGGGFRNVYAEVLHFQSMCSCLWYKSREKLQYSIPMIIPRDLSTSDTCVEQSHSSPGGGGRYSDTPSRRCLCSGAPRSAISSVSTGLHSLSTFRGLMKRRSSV
Chain of fMet-Leu-Phe receptor (P21462 whole entry): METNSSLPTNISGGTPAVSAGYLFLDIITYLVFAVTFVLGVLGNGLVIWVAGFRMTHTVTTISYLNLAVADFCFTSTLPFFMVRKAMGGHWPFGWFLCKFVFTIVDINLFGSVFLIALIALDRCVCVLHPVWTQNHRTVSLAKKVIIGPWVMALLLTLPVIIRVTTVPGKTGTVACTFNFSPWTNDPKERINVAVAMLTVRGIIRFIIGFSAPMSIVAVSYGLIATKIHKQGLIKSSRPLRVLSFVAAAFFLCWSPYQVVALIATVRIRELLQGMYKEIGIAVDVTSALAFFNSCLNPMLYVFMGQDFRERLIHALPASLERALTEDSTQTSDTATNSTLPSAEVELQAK
Chain of Disintegrin and metalloproteinase domain-containing protein 17 (P78536 whole entry, the tested form may be a part): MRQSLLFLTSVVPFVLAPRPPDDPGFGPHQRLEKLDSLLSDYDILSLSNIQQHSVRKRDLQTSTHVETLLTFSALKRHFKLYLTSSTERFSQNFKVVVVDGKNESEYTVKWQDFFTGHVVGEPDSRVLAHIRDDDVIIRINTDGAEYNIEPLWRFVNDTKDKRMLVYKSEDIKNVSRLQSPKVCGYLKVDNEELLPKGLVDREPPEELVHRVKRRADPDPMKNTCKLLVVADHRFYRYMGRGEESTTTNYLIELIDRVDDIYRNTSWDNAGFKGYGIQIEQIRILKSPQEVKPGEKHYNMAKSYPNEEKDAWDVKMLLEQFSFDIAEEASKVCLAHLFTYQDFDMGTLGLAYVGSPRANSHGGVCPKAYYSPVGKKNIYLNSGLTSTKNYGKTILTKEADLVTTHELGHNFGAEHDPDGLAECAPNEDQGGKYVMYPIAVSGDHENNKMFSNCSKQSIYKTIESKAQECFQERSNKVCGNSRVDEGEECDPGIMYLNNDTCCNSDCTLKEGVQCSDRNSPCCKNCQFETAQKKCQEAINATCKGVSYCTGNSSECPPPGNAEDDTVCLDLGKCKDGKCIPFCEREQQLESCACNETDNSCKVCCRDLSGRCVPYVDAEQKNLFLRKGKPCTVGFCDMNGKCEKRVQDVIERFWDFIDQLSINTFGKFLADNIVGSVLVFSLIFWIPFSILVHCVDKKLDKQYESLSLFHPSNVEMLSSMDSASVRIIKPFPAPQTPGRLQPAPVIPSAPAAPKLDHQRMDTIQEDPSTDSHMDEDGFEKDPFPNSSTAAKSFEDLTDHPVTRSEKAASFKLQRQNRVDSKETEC
Chain of NAD-dependent protein deacylase sirtuin-5, mitochondrial (Q9NXA8 whole entry): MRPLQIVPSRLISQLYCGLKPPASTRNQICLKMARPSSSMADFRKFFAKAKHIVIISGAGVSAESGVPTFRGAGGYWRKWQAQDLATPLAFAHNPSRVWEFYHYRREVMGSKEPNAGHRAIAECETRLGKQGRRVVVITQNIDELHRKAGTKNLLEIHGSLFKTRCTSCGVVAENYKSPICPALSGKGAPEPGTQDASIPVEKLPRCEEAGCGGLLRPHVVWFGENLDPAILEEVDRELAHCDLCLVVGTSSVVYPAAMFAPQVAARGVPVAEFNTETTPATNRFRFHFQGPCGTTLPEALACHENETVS
Chain of Vasopressin V1b receptor (P47901 whole entry): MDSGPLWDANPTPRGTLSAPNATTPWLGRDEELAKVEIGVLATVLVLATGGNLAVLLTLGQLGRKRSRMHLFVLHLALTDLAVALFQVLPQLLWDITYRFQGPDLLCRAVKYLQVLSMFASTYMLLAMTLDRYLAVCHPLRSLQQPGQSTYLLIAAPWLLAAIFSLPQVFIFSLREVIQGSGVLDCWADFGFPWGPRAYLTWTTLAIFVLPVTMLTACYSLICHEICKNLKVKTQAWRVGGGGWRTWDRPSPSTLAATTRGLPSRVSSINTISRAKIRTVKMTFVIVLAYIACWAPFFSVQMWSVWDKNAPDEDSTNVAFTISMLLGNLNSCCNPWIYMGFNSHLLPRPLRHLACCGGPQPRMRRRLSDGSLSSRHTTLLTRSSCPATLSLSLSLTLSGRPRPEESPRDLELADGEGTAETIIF
Chain of Vasopressin V2 receptor (P30518 whole entry): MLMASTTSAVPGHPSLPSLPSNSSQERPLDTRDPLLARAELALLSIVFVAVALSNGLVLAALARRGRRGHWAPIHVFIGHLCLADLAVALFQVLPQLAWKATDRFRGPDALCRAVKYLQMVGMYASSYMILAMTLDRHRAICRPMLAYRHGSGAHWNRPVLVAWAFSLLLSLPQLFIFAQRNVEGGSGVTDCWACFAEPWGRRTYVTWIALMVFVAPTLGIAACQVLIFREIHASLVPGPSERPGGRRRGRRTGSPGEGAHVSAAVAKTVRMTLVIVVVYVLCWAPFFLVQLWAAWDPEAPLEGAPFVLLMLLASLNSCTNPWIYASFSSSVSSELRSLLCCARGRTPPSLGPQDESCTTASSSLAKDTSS

On to `C[C@H]1CN([C@@H](C)CO)S(=O)(=O)c2ccc(Br)cc2O[C@@H]1CN(C)S(=O)(=O)c1ccccc1F`, for which the AC50 (with HEK293; in experiment [1]) was 15.7 µM (active) throughout.

On to `C[C@@H]1CN([C@@H](C)CO)C(=O)c2cccc(NC(=O)c3ccncc3)c2O[C@H]1CN(C)Cc1ccc(-c2ccccc2)cc1`, for which the IC50 – broadly, the point on the concentration scale where inhibition reaches its midpoint – was 1.2 µM (active) in experiment [2]; 13.5 µM (active) in experiment [4]; 0.729 µM (active) in [6]; 1.2 µM (active) in experiment [7]; 0.146 µM (active) in experiment [8]; 13.3 µM (inactive) in [9]. For the same compound, the AC50 – broadly, the concentration at which the activity in the assay is half-maximal – was 21.9 µM (active) in experiment [3] and 0.08 µM (active) in experiment [5].

Turning to `CO[C@@H]1CN(C)C(=O)c2cc(NC(=O)Nc3cc(Cl)cc(Cl)c3)ccc2OC[C@H](C)NC[C@H]1C`, the half-maximal activity concentration (AC50) in experiment [10] was 17.6 µM (active); in experiment [11], 10.9 µM (active); in experiment [12], 29 µM (active); in [13], 10.1 µM (active); in experiment [14] it was 12.8 µM (active).

With `C[C@@H](NC(=O)C[C@H]1C=C[C@@H](NC(=O)Cc2ccccn2)[C@H](CO)O1)c1ccccc1`, the AbsAC35 in experiment [15] came to 52.1 µM.

As to `C[C@H]1CN([C@@H](C)CO)C(=O)c2cccc(NC(=O)c3ccncc3)c2O[C@@H]1CN(C)Cc1ccccc1Cl`, the concentration at half-maximal activity (AC50) in experiment [16] was 0.165 µM (active).

Take `CCOc1ccc(NC(=O)c2cccc(NC(=O)C3CCCC3)c2)cc1`: in experiment [17], the IC50 was 0.07 µM (active).

`Cc1ccc(S(=O)(=O)N(C)C[C@H]2OCCCC[C@H](C)Oc3ccc(NS(=O)(=O)c4ccc(F)cc4)cc3C(=O)N([C@@H](C)CO)C[C@H]2C)cc1`: the AC50 in [18] was > 30 µM (inactive).

Consider `COc1ccc(N(CC2CC2)C(=O)N2CCN(c3ccccc3C(F)(F)F)CC2)cc1`, for which the IC50 on Vasopressin V2 receptor was 8.41 µM (active); at Vasopressin V1b receptor, 17.9 µM (inactive); in experiment [19], 0.12 µM (active); in [20], 0.0588 µM (active).

Consider `CCOc1ccc(CNC(=S)N/N=C/c2ccc(OC)c(OC)c2)cc1`, for which the IC50 in experiment [21] and in [22] was > 69.5 µM (inactive) each time.

As for `CCN(CCCc1ccccc1)CCCc1ccccc1` [ALVERINE CITRATE], at fMet-Leu-Phe receptor, the Ki (in general, the dissociation constant of the complex between target and ligand, obtained from inhibition or displacement) is > 66.7 µM (inactive).
